# Reference: patent US20080221161A1, “HETEROCYCLIC MODULATORS OF TGR5 FOR TREATMENT OF DISEASE” (KALYPSYS, INC., priority 2007, published 2008)
# Molecular target: T1, human TGR5 (Homo sapiens, UniProt Q8TDU6)
# T1 construct: expressed in transfected cells; host or cells: HEK-293 cells, stably transfected (pcDNA 3.1, Fugene6, geneticin selection)
# T1 sequence (Q8TDU6 1-330): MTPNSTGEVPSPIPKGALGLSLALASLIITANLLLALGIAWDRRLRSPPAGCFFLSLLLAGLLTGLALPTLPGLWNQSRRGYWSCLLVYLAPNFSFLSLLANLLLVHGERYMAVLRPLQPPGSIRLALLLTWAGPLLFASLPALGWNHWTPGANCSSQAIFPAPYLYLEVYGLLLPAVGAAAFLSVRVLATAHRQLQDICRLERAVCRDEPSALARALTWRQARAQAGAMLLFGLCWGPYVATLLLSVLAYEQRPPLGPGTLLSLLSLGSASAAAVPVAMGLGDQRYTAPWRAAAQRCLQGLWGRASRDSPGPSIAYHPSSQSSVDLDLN
# Assay: cAMP production assay in HEK293-TGR5 cells
# Assay type: cell-based
# Details: HEK293 cells stably expressing human TGR5; 30 minutes stimulation; LANCE cAMP TR-FRET; read-out: cAMP Production in 293-TGR5 Cells EC50
# Experimental: HEK293 cells stably expressing TGR5 (HEK293-TGR5) were established by stably transfecting HEK-293 cells with an expression vector (pcDNA 3.1, Invetrogen) inserted with human TGR5 cDNA using Fugene6 (Roche, Indianapolis, Ind.) according to conventional methods. Cells were grown in DMEM (invitrogen, Carlsbad, Calif.) supplemented with 10% FBS, 1% penicillin/streptomycin under geneticin selection. The presence of TGR5 transcripts in these cells was confirmed using branched DNA (bDNA, Genospectra, Inc., Fremont Calif.) following the manufacturer's protocol and using specific probes for human TGR5. cAMP production assay was performed in high throughput 1536 well format using LANCE cAMP detection kit (Perkin Elmer Inc., Boston, Mass.) according to the manufacturer's protocol. Briefly, HEK293-TGR5 cells were harvested using non-enzymatic cell dissociation buffer (Invitrogen, Carlsbad, Calif.) and suspended in DMEM supplemented with 0.1% FBS at a density of 800,000 cells/ml. Alexa antibody was added to the cell suspension, and 4 ul of the mixture was dispensed in white opaque tissue culture treated Greiner 1536 well plates (USA Scientific, Inc., Ocala, Fla.). After an overnight incubation at 37C in an atmosphere of 10% CO2 and 95% humidity, 1 ul of 5 mM IBMX (Sigma, St. Louis, Mo.) solution in DMEM was dispensed for a final concentration of 1 mM. Cells were then stimulated with test compounds for 30 minutes, after which time 5 ul of detection reagent was added and incubated for 1-7 hrs at room temperature. TR-FRET signal was detected using the Viewlux (Perkin Elmer Inc., Boston Mass.). EC50 values were determined using Graph Pad Prizm analysis (GraphPad Software, Inc).
row,SMILES,EC50 [µM]
1,"FC(F)(F)Oc1ccc2cc(CNCCc3ccc(Cl)cc3)c(-c3cccnc3)nc2c1 [Example 14, 2-(4-Chlorophenyl)-N-((2-(pyridin-3-yl)-7-(trifluoromethoxy)quinolin-3-yl)methyl)ethanamine]",> 10
2,"COc1ccc2cc(CN[C@H](C)c3ccc(C)cc3)c(-c3ccncc3)nc2c1 [Example 85, (R)—N-((7-Methoxy-2-(pyridin-4-yl)quinolin-3-yl)methyl)-1-p-tolylethanamine]",< 10
3,"Clc1ccc(CCNCc2cc3ccccc3nc2-c2ccsc2)cc1 [Example 29, 2-(4-Chlorophenyl)-N-((2-(thiophen-3-yl)quinolin-3-yl)methyl)-ethanamine]",> 10
4,"Oc1ccc2nc(-c3ccsc3)c(CNCCc3ccc(Cl)cc3)cc2c1 [Example 105, 3-((4-Chlorophenethylamino)methyl)-2-(thiophen-3-yl)quinolin-6-ol]",< 10
5,"O=[N+]([O-])c1ccc2cc(CNCCc3ccc(Br)cc3)c(-c3ccsc3)nc2c1 [Example 127, 2-(4-bromophenyl)-N-((7-nitro-2-(thiophen-3-yl)quinolin-3-yl)methyl)ethanamine]",> 10
6,"Oc1ccc2cc(CNCCc3ccc(Br)cc3)c(-c3ccoc3)nc2c1 [Example 109, 3-((4-Bromophenethylamino)methyl)-2-(furan-3-yl)quinolin-7-ol]",> 10
7,"CCOc1ccc2cc(CNCCc3ccc(Br)cc3)c(-c3cccnc3)nc2c1 [Example 45, 2-(4-Bromophenyl)-N-((7-ethoxy-2-(pyridin-3-yl)quinolin-3-yl)methyl)ethanamine]",> 10
8,"Oc1cc2cc(CNCCc3ccc(Br)cc3)c(-c3ccsc3)nc2cc1Cl [Example 124, 3-((4-Bromophenethylamino)methyl)-7-chloro-2-(thiophen-3-yl)quinolin-6-ol]",> 10
9,"COc1ccc2cc(CNCCc3ccc(Cl)cc3)c(-c3ccncc3)nc2c1 [Example 22, 2-(4-Chlorophenyl)-N-((7-methoxy-2-(pyridin-4-yl)quinolin-3-yl)methyl)ethanamine]",< 10
10,"CCOC(=O)c1ccc2cc(CNCCc3ccc(Br)cc3)c(-c3ccsc3)nc2c1 [Example 137, Ethyl 3-((4-bromophenethylamino)methyl)-2-(thiophen-3-yl)quinoline-7-carboxylate]",> 10
11,"Oc1ccc2nc(-c3ccsc3)c(CNCc3ccc(C(F)(F)F)cc3)cc2c1 [Example 111, 2-(Thiophen-3-yl)-3-((4-(trifluoromethyl)benzylamino)methyl)quinolin-6-ol]",> 10
12,"COc1ccc2cc(CNCc3ccc(C(F)(F)F)cc3)c(-c3ccccc3)nc2c1 [Example 48, 1-(7-Methoxy-2-phenylquinolin-3-yl)-N-(4-(trifluoromethyl)benzyl)methanamine]",< 10
13,"Cc1cc2nc(-c3ccsc3)c(CNCCc3ccc(Br)cc3)cc2cc1O [Example 132, 3-((4-Bromophenethylamino)methyl)-7-methyl-2-(thiophen-3-yl)quinolin-6-ol]",> 10
14,"COc1ccc2cc(CNCCCc3ccccc3)c(-c3ccncc3)nc2c1 [Example 81, N-((7-Methoxy-2-(pyridin-4-yl)quinolin-3-yl)methyl)-3-phenylpropan-1-amine]",< 10
15,"COc1ccc2cc(CNCCc3ccc(Cl)cc3)c(-c3cnn(C)c3)nc2c1 [Example 21, 2-(4-Chlorophenyl)-N-((7-methoxy-2-(1-methyl-1H-pyrazol-4-yl)quinolin-3-yl)methyl)ethanamine]",< 10
16,"Nc1ccc2cc(CNCCc3ccc(Br)cc3)c(-c3ccsc3)nc2c1 [Example 128, 3-((4-Bromophenethylamino)methyl)-2-(thiophen-3-yl)quinolin-7-amine]",> 10
17,"Oc1cc2cc(CNCCc3ccc(Br)cc3)c(-c3ccsc3)nc2cc1F [Example 126, 3-((4-Bromophenethylamino)methyl)-7-fluoro-2-(thiophen-3-yl)quinolin-6-ol]",< 10
18,"CC(=O)Nc1ccc2cc(CNCCc3ccc(Br)cc3)c(-c3ccsc3)nc2c1 [Example 142, N-(3-((4-bromophenethylamino)methyl)-2-(thiophen-3-yl)quinolin-7-yl)acetamide]",> 10

# Other lines, results leading:
row,EC50 [µM],SMILES
1,> 10,"CSc1ccc2cc(CNCc3ccc(C(F)(F)F)cc3)c(-c3ccsc3)nc2c1 [Example 40, 1-(7-(Methylthio)-2-(thiophen-3-yl)quinolin-3-yl)-N-(4-(trifluoromethyl)benzyl)methanamine]"
2,< 10,"COc1ccc2cc(CNCc3ccc([N+](=O)[O-])cc3)c(-c3ccsc3)nc2c1 [Example 67, 1-(7-Methoxy-2-(thiophen-3-yl)quinolin-3-yl)-N-(4-nitrobenzyl)methanamine]"
3,< 10,"COc1ccc2cc(CNCCc3ccc(OC)c(Br)c3)c(-c3ccsc3)nc2c1 [Example 65, 2-(3-Bromo-4-methoxyphenyl)-N-((7-methoxy-2-(thiophen-3-yl)quinolin-3-yl)methyl)ethanamine]"
4,< 10,"COc1ccc2cc(CNc3ccc(Cl)cc3)c(-c3ccsc3)nc2c1 [Example 69, 4-Chloro-N-((7-methoxy-2-(thiophen-3-yl)quinolin-3-yl)methyl)aniline]"
5,> 10,"CN(C)c1ccc2cc(CNCc3ccc(C(F)(F)F)cc3)c(-c3ccsc3)nc2c1 [Example 88, N,N-Dimethyl-2-(thiophen-3-yl)-3-((4-(trifluoromethyl)benzylamino)methyl)quinolin-7-amine]"
6,> 10,"COc1ccc2cc(CNCc3ccc4c(c3)OCO4)c(-c3ccsc3)nc2c1 [Example 64, 1-(Benzo[d][1,3]dioxol-5-yl)-N-((7-methoxy-2-(thiophen-3-yl)quinolin-3-yl)methyl)methanamine]"
7,< 10,"COc1ccc2cc(CN[C@@H](C)c3ccc(Br)cc3)c(-c3ccsc3)nc2c1 [Example 133, (S)-1-(4-Bromophenyl)-N-((7-methoxy-2-(thiophen-3-yl)quinolin-3-yl)methyl)ethanamine]"
8,< 10,"Oc1ccc2cc(CNCCc3ccc(Cl)c(Cl)c3)c(-c3ccsc3)nc2c1 [Example 101, 3-((3,4-Dichlorophenethylamino)methyl)-2-(thiophen-3-yl)quinolin-7-ol]"
9,< 10,"COc1cc(OC)c2cc(CNCc3ccc(C(F)(F)F)cc3)c(-c3ccsc3)nc2c1 [Example 53, 1-(5,7-Dimethoxy-2-(thiophen-3-yl)quinolin-3-yl)-N-(4-(trifluoromethyl)benzyl)methanamine]"
10,> 10,"COc1ccc2cc(CNCc3cccnc3)c(-c3ccsc3)nc2c1 [Example 72, 1-(7-Methoxy-2-(thiophen-3-yl)quinolin-3-yl)-N-(pyridin-3-ylmethyl)methanamine]"
11,> 10,"COc1ccc2cc(CNC(=O)c3ccc(C(F)(F)F)cc3)c(-c3ccsc3)nc2c1 [Example 17, N-((7-methoxy-2-(thiophen-3-yl)quinolin-3-yl)methyl)-4-(trifluoromethyl)benzamide]"
12,> 10,"COc1ccc2nc(-c3ccsc3)c(CNCCc3ccc(Cl)cc3)cc2c1 [Example 27, 2-(4-Chlorophenyl)-N-((6-methoxy-2-(thiophen-3-yl)quinolin-3-yl)methyl)ethanamine]"
13,< 10,"CCOc1ccc2cc(CNCCc3ccc(Cl)cc3)c(-c3ccsc3)nc2c1 [Example 50, 2-(4-Chlorophenyl)-N-((7-ethoxy-2-(thiophen-3-yl)quinolin-3-yl)methyl)ethanamine]"
